Like-named read-outs stand apart in the source and are kept apart here.
What was measured:
[1] = tested on: hiPSC-derived neurons co-cultured with human primary astrocytes in 2D; assay: Ca2+ transient oscillation assay (FDSS), 2D co-culture; format: cell-based; settings: Homo sapiens, 1 h, 60 min
Summary of the method: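 Cultures were 10,000 CW50065 hiPSC excitatory neurons plus 2500 primary human astrocytes per well. Recordings used Cal-520 dye in HBSS/HEPES/glucose at 37 °C, with a 470/540 nm read at 2 Hz. Oscillations were stabilized with 0.04% DMSO, read for 20 min, then read again 60 min after compound addition (final DMSO 0.1%).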

[2] = tested on: hiPSC-derived neurons co-cultured with human primary astrocytes in 3D; assay: Ca2+ transient oscillation assay (FDSS), 3D spheroids; format: cell-based; settings: 60 min
Summary of the method: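 Fura-2 fluorescence was read twice for 20 min each: a baseline 10 min after 0.04% DMSO, and again 60 min after compound addition at nominal final concentration. The 3D co-cultures (1:1 hiPSC neurons from a donor and human astrocytes, 8000 each) matured 5 weeks in BrainPhys medium after a 1-week differentiation.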

[3] = ref PharmaPendium, cited from earlier work
[4] = read-out: Area under the curve - 2D Mean
[5] = read-out: Peak amplitude - 2D Mean
[6] = read-out: Peak-to-peak interval - 2D Mean
[7] = Table 1, peak plasma concentration in men, free therapeutic Cmax

Structure (SMILES): CC1(C)S[C@@H]2[C@H](NC(=O)[C@H](N)c3ccc(O)cc3)C(=O)N2[C@H]1C(=O)O [Amoxicillin]
- activation at 0.11 µM [1, 4]: 38.3%
- activation at 0.11 µM ([1]; read-out: Peak Number—2D Mean): -10.5%
- activation at 0.11 µM [1, 5]: 19.3%
- activation at 0.11 µM ([1]; read-out: Peak width - 2D Mean): 22.3%
- activation at 0.11 µM [1, 6]: 27.3%
- activation at 0.33 µM [1, 4]: 23.7%
- activation at 0.33 µM ([1]; read-out: Peak Number—2D Mean): 8.3%
- activation at 0.33 µM [1, 5]: 5%
- activation at 0.33 µM ([1]; read-out: Peak width - 2D Mean): 25.7%
- activation at 0.33 µM [1, 6]: 9.3%
- activation at 1 µM [1, 4]: 45.8%
- activation at 1 µM ([1]; read-out: Peak Number—2D Mean): 27.2%
- activation at 1 µM [1, 5]: 8.3%
- activation at 1 µM ([1]; read-out: Peak width - 2D Mean): 48%
- activation at 1 µM [1, 6]: -16%
- activation at 3 µM [1, 4]: 43%
- activation at 3 µM ([1]; read-out: Peak Number—2D Mean): 16.2%
- activation at 3 µM [1, 5]: 7.5%
- activation at 3 µM ([1]; read-out: Peak width - 2D Mean): 47.7%
- activation at 3 µM [1, 6]: -7.8%
- Area under the curve - 3D Mean ([2]; 0.11 µM): 147.7 % change from baseline
- Peak Number—3D Mean ([2]; 0.11 µM): −8.0 % change from baseline
- Peak amplitude - 3D Mean ([2]; 0.11 µM): 136.9 % change from baseline
- Peak width - 3D Mean ([2]; 0.11 µM): 4.7 % change from baseline
- Peak-to-peak interval - 3D Mean ([2]; 0.11 µM): 12.1 % change from baseline
- Area under the curve - 3D Mean ([2]; 0.33 µM): 145.7 % change from baseline
- Peak Number—3D Mean ([2]; 0.33 µM): 1.4 % change from baseline
- Peak amplitude - 3D Mean ([2]; 0.33 µM): 132.0 % change from baseline
- Peak width - 3D Mean ([2]; 0.33 µM): 5.5 % change from baseline
- Peak-to-peak interval - 3D Mean ([2]; 0.33 µM): 9.0 % change from baseline
- Area under the curve - 3D Mean ([2]; 1 µM): 122.0 % change from baseline
- Peak Number—3D Mean ([2]; 1 µM): 9.3 % change from baseline
- Peak amplitude - 3D Mean ([2]; 1 µM): 130.1 % change from baseline
- Peak width - 3D Mean ([2]; 1 µM): −4.5 % change from baseline
- Peak-to-peak interval - 3D Mean ([2]; 1 µM): −5.5 % change from baseline
- Area under the curve - 3D Mean ([2]; 3 µM): 125.7 % change from baseline
- Peak Number—3D Mean ([2]; 3 µM): 18.3 % change from baseline
- Peak amplitude - 3D Mean ([2]; 3 µM): 123.5 % change from baseline
- Peak width - 3D Mean ([2]; 3 µM): 1.2 % change from baseline
- Peak-to-peak interval - 3D Mean ([2]; 3 µM): −1.2 % change from baseline
- Free Cmax [3, 7]: 0.003 to 32 µM

Structure (SMILES): CC(=O)Oc1ccccc1C(=O)O [Aspirin]
- activation at 3.7 µM [1, 4]: 48.5%
- activation at 3.7 µM ([1]; read-out: Peak Number—2D Mean): -10.2%
- activation at 3.7 µM [1, 5]: 13.1%
- activation at 3.7 µM ([1]; read-out: Peak width - 2D Mean): 43.6%
- activation at 3.7 µM [1, 6]: 15.5%
- activation at 11.11 µM [1, 4]: 25.7%
- activation at 11.11 µM ([1]; read-out: Peak Number—2D Mean): 17.6%
- activation at 11.11 µM [1, 5]: 4.2%
- activation at 11.11 µM ([1]; read-out: Peak width - 2D Mean): 25.9%
- activation at 11.11 µM [1, 6]: 1.8%
- activation at 33.33 µM [1, 4]: 37.6%
- activation at 33.33 µM ([1]; read-out: Peak Number—2D Mean): 10.1%
- activation at 33.33 µM [1, 5]: 6.2%
- activation at 33.33 µM ([1]; read-out: Peak width - 2D Mean): 38.3%
- activation at 33.33 µM [1, 6]: -0.5%
- activation at 100 µM [1, 4]: 30%
- activation at 100 µM ([1]; read-out: Peak Number—2D Mean): 27.9%
- activation at 100 µM [1, 5]: 3.9%
- activation at 100 µM ([1]; read-out: Peak width - 2D Mean): 32.1%
- activation at 100 µM [1, 6]: -17%
- Area under the curve - 3D Mean ([2]; 3.7 µM): 139.0 % change from baseline
- Peak Number—3D Mean ([2]; 3.7 µM): −0.4 % change from baseline
- Peak amplitude - 3D Mean ([2]; 3.7 µM): 129.1 % change from baseline
- Peak width - 3D Mean ([2]; 3.7 µM): 4.2 % change from baseline
- Peak-to-peak interval - 3D Mean ([2]; 3.7 µM): 10.9 % change from baseline
- Area under the curve - 3D Mean ([2]; 11.11 µM): 139.2 % change from baseline
- Peak Number—3D Mean ([2]; 11.11 µM): 0.0 % change from baseline
- Peak amplitude - 3D Mean ([2]; 11.11 µM): 138.1 % change from baseline
- Peak width - 3D Mean ([2]; 11.11 µM): 0.3 % change from baseline
- Peak-to-peak interval - 3D Mean ([2]; 11.11 µM): −2.2 % change from baseline
- Area under the curve - 3D Mean ([2]; 33.33 µM): 147.8 % change from baseline
- Peak Number—3D Mean ([2]; 33.33 µM): 10.0 % change from baseline
- Peak amplitude - 3D Mean ([2]; 33.33 µM): 135.8 % change from baseline
- Peak width - 3D Mean ([2]; 33.33 µM): 5.0 % change from baseline
- Peak-to-peak interval - 3D Mean ([2]; 33.33 µM): −1.7 % change from baseline
- Area under the curve - 3D Mean ([2]; 100 µM): 133.2 % change from baseline
- Peak Number—3D Mean ([2]; 100 µM): −8.2 % change from baseline
- Peak amplitude - 3D Mean ([2]; 100 µM): 123.5 % change from baseline
- Peak width - 3D Mean ([2]; 100 µM): 4.7 % change from baseline
- Peak-to-peak interval - 3D Mean ([2]; 100 µM): 6.7 % change from baseline
- Free Cmax [3, 7]: 0.04 to 0.16 µM
- Free Cmax ([3]; Table 2, highest plasma concentration in humans after the therapeutic dose): 0.04 to 0.16 µM

From paper PMC10046961, “High-Throughput Screening Assay for Detecting Drug-Induced Changes in Synchronized Neuronal Oscillations and Potential Seizure Risk Based on Ca^2+ Fluorescence Measurements in Human Induced Pluripotent Stem Cell (hiPSC)-Derived Neuronal 2D and 3D Cultures” (Cells, 2023)
